{"source": "patent US10131652B2", "about": "“Pyrimidinyloxy benzene derivatives as herbicides” (E. I. DU PONT DE NEMOURS AND COMPANY, priority 2014, dated 2018)", "assay_in_all_cases": "Test D pre-/postemergence plant response", "type_in_all_cases": "in vivo", "key": {"[1]": {"system": "lambsquarters (Chenopodium album)", "conditions": "Chenopodium album, pre-emergence, Preemergence, scale 0 to 100 (0 no effect, 100 complete control), read-out: Plant response rating, Lambsquarters", "text": "(§1) Seeds of plant species selected from blackgrass (Alopecurus myosuroides), Italian ryegrass (Lolium multiflorum), winter wheat (Triticum aestivum), galium (catchweed bedstraw, Galium aparine), corn (Zea mays), large (Lg) crabgrass (Digitaria sanguinalis), giant foxtail (Setaria faberii), johnsongrass (Sorghum halepense), lambsquarters (Chenopodium album), morningglory (Ipomoea coccinea), yellow nutsedge (Cyperus esculentus), pigweed (Amaranthus retroflexus), ragweed (common ragweed, Ambrosia elatior), soybean (Glycine max), bamyardgrass (Echinochloa crus-galli), oilseed rape (Brassica napus), waterhemp (common waterhemp, Amaranthus rudis), and velvetleaf (Abutilon theophrasti) were planted into a blend of loam soil and sand and treated preemergence with test chemicals formulated in a non-phytotoxic solvent mixture which included a surfactant. At the same time, plants selected from these crop and weed species and also kochia (Kochia scoparia), wild oat (Avena fatua), and chickweed (common chickweed, Stellaria media) were planted in pots containing Redi-Earth® planting medium (Scotts Company, 14111 Scottslawn Road, Marysville, Ohio 43041) comprising spaghnum peat moss, vermiculite, wetting agent and starter nutrients and treated with postemergence applications of test chemicals formulated in the same manner. Plants ranged in height from 2 to 18 cm (1- to 4-leaf stage) for postemergence treatments. Treated plants and controls were maintained in a greenhouse for 13 to 15 days, after which time all species were compared to controls and visually evaluated. Plant response ratings, summarized in Table D, are based on a scale of 0 to 100 where 0 is no effect and 100 is complete control. A dash (-) response means no test result."}, "[2]": {"system": "large (Lg) crabgrass (Digitaria sanguinalis)", "conditions": "Digitaria sanguinalis; for pest or weed control at 8 g/ha: 8 g ai/ha; for pest or weed control at 16 g/ha: 16 g ai/ha; for pest or weed control at 31 g/ha: 31 g ai/ha; for pest or weed control at 62 g/ha: 62 g ai/ha", "text": "as §1"}, "[3]": {"system": "blackgrass (Alopecurus myosuroides)", "conditions": "Alopecurus myosuroides; for pest or weed control at 8 g/ha: 8 g ai/ha; for pest or weed control at 16 g/ha: 16 g ai/ha; for pest or weed control at 31 g/ha: 31 g ai/ha; for pest or weed control at 62 g/ha: 62 g ai/ha", "text": "as §1"}, "[4]": {"system": "galium (catchweed bedstraw, Galium aparine)", "conditions": "Galium; for pest or weed control at 8 g/ha: 8 g ai/ha; for pest or weed control at 16 g/ha: 16 g ai/ha; for pest or weed control at 31 g/ha: 31 g ai/ha; for pest or weed control at 62 g/ha: 62 g ai/ha", "text": "as §1"}, "[5]": {"system": "winter wheat (Triticum aestivum)", "conditions": "Triticum aestivum; for plant injury at 8 g/ha: 8 g ai/ha; for plant injury at 16 g/ha: 16 g ai/ha; for plant injury at 31 g/ha: 31 g ai/ha; for plant injury at 62 g/ha: 62 g ai/ha", "text": "as §1"}, "[6]": {"conditions": "post-emergence, Postemergence, scale 0 to 100 (0 no effect, 100 complete control), read-out: Crabgrass, Large plant response rating"}, "[7]": {"conditions": "pre-emergence, Preemergence, scale 0 to 100 (0 no effect, 100 complete control), read-out: Plant response rating, Crabgrass, Large"}, "[8]": {"conditions": "post-emergence, Postemergence, scale 0 to 100 (0 no effect, 100 complete control), read-out: Blackgrass plant response rating"}, "[9]": {"conditions": "pre-emergence, Preemergence, scale 0 to 100 (0 no effect, 100 complete control), read-out: Plant response rating, Blackgrass"}, "[10]": {"conditions": "post-emergence, Postemergence, scale 0 to 100 (0 no effect, 100 complete control), read-out: Galium plant response rating"}, "[11]": {"conditions": "pre-emergence, Preemergence, scale 0 to 100 (0 no effect, 100 complete control), read-out: Plant response rating, Galium"}, "[12]": {"conditions": "post-emergence, Postemergence, scale 0 to 100 (0 no effect, 100 complete control), read-out: Wheat plant response rating"}, "[13]": {"conditions": "pre-emergence, Preemergence, scale 0 to 100 (0 no effect, 100 complete control), read-out: Plant response rating, Wheat"}}, "note": "Read-outs that look alike come from different tables or passages of the source.", "data": [{"smiles": "FC(F)c1cc(-c2ccccc2Oc2ncc(Cl)cn2)no1", "note": "[Compound 35, 5-chloro-2-[2-[5-(difluoromethyl)-3-isoxazolyl]phenoxy]pyrimidine]", "values": [{"measurement": "pest or weed control at 16 g/ha", "setting": "[1]; 16 g ai/ha", "result": 100, "unit": "%"}, {"measurement": "pest or weed control at 31 g/ha", "setting": "[1]; 31 g ai/ha", "result": 98, "unit": "%"}, {"measurement": "pest or weed control at 62 g/ha", "setting": "[1]; 62 g ai/ha", "result": 100, "unit": "%"}, {"measurement": "pest or weed control at 8 g/ha", "setting": "[2]; post-emergence, Postemergence, read-out: Plant response rating (scale 0 to 100), Crabgrass, Large", "result": 5, "unit": "%"}, {"measurement": "pest or weed control at 16 g/ha", "setting": "[2]; [6]", "result": 10, "unit": "%"}, {"measurement": "pest or weed control at 31 g/ha", "setting": "[2]; [6]", "result": 10, "unit": "%"}, {"measurement": "pest or weed control at 62 g/ha", "setting": "[2]; post-emergence, Postemergence, scale 0 to 100, 0 no effect, 100 complete control, read-out: Plant response rating, Crabgrass, Large", "result": 10, "unit": "%"}, {"measurement": "pest or weed control at 8 g/ha", "setting": "[2]; [7]", "result": 80, "unit": "%"}, {"measurement": "pest or weed control at 16 g/ha", "setting": "[2]; [7]", "result": 100, "unit": "%"}, {"measurement": "pest or weed control at 31 g/ha", "setting": "[2]; [7]", "result": 100, "unit": "%"}, {"measurement": "pest or weed control at 62 g/ha", "setting": "[2]; [7]", "result": 100, "unit": "%"}, {"measurement": "pest or weed control at 8 g/ha", "setting": "[3]; post-emergence, Postemergence, read-out: Plant response rating (scale 0 to 100), Blackgrass", "result": 30, "unit": "%"}, {"measurement": "pest or weed control at 16 g/ha", "setting": "[3]; [8]", "result": 35, "unit": "%"}, {"measurement": "pest or weed control at 31 g/ha", "setting": "[3]; [8]", "result": 40, "unit": "%"}, {"measurement": "pest or weed control at 62 g/ha", "setting": "[3]; post-emergence, Postemergence, scale 0 to 100, 0 no effect, 100 complete control, read-out: Plant response rating, Blackgrass", "result": 60, "unit": "%"}, {"measurement": "pest or weed control at 8 g/ha", "setting": "[3]; [9]", "result": 70, "unit": "%"}, {"measurement": "pest or weed control at 16 g/ha", "setting": "[3]; [9]", "result": 70, "unit": "%"}, {"measurement": "pest or weed control at 31 g/ha", "setting": "[3]; [9]", "result": 90, "unit": "%"}, {"measurement": "pest or weed control at 62 g/ha", "setting": "[3]; [9]", "result": 90, "unit": "%"}, {"measurement": "pest or weed control at 8 g/ha", "setting": "[4]; post-emergence, Postemergence, read-out: Plant response rating (scale 0 to 100), Galium", "result": 80, "unit": "%"}, {"measurement": "pest or weed control at 16 g/ha", "setting": "[4]; [10]", "result": 70, "unit": "%"}, {"measurement": "pest or weed control at 31 g/ha", "setting": "[4]; [10]", "result": 75, "unit": "%"}, {"measurement": "pest or weed control at 62 g/ha", "setting": "[4]; post-emergence, Postemergence, scale 0 to 100, 0 no effect, 100 complete control, read-out: Plant response rating, Galium", "result": 85, "unit": "%"}, {"measurement": "pest or weed control at 8 g/ha", "setting": "[4]; [11]", "result": 85, "unit": "%"}, {"measurement": "pest or weed control at 16 g/ha", "setting": "[4]; [11]", "result": 100, "unit": "%"}, {"measurement": "pest or weed control at 31 g/ha", "setting": "[4]; [11]", "result": 100, "unit": "%"}, {"measurement": "pest or weed control at 62 g/ha", "setting": "[4]; [11]", "result": 100, "unit": "%"}, {"measurement": "plant injury at 8 g/ha", "setting": "[5]; post-emergence, Postemergence, read-out: Plant response rating (scale 0 to 100), Wheat", "result": 0, "unit": "%"}, {"measurement": "plant injury at 16 g/ha", "setting": "[5]; [12]", "result": 0, "unit": "%"}, {"measurement": "plant injury at 31 g/ha", "setting": "[5]; [12]", "result": 5, "unit": "%"}, {"measurement": "plant injury at 62 g/ha", "setting": "[5]; post-emergence, Postemergence, scale 0 to 100, 0 no effect, 100 complete control, read-out: Plant response rating, Wheat", "result": 10, "unit": "%"}, {"measurement": "plant injury at 8 g/ha", "setting": "[5]; [13]", "result": 0, "unit": "%"}, {"measurement": "plant injury at 16 g/ha", "setting": "[5]; [13]", "result": 0, "unit": "%"}, {"measurement": "plant injury at 31 g/ha", "setting": "[5]; [13]", "result": 5, "unit": "%"}, {"measurement": "plant injury at 62 g/ha", "setting": "[5]; [13]", "result": 15, "unit": "%"}]}]}
